Residues, ends and D or L forms follow the SMILES beside them. *: point of attachment. Cbz = O=C(OCc1ccccc1)*; CH2F = FC*
Legend:
A293AD kidney cells = test: Thapsagargin-induced cell death, LDH release, A293AD kidney cells; assay type: cell-based, human
Experimental: It was previously shown that cystathionine can protect against ER stress induced cell death induced by the glycosylation inhibitor tunicamycin. In order to investigate if this protective effect was limited to tunicamycin, it was investigated whether cystathionine (1 mM) could protect A293AD kidney cells against ER stress induced cell death mediated by the calcium metabolism inhibitor compound thapsagargin (1 uM). Cell death was monitored by measuring LDH release into culture media. In order to investigate if cystathionine was simply blocking apoptosis, the effect of thapsagargin in the presence of the known apoptosis inhibitor Z-VAD-FMK was investigated. […] While it is not necessary to understand the mechanism of action, it is believed that 1.

HepG2 cells [1] = test: Tunicamycin or thapsagargin induced cell death in HepG2 cells, comparison with Z-VAD-FMK; assay type: cell-based, human; conditions: p>0.05 for Z-VAD-FMK
[2] = Solubility of cystathionine in water; assay type: physicochemical
Grp78, Grp94, GADD153 = test: Northern and Western blotting of UPR induction in 293AD cells; assay type: cell-based, human
Experimental: To further assess the effect of cystathionine upon induction of the UPR and GADD153 by ER stress Northern and Western blotting experiments were performed.
Immunoblot analysis of total cell lysates was performed as described previously (4,14). Briefly, following incubation with the appropriate primary and horseradish peroxidase-conjugated secondary antibodies (Affinity Biologicals, Ancaster, ON, Canada) membranes were developed using the Renaissance® Western Blot Chemiluminescence Reagent Kit, (Perkin Elmer, Woodbridge, ON, Canada). Proteins were transferred on a nitrocellulose membrane, and probed with anti-KDEL monoclonal antibody, which recognizes Hsp70, GRP78 and GRP94 that was purchased from Stressgen Biotechnologies (SPA-827) or anti GADD153 (Santa Cruz Biotech #SC-7351). Anti-β-Actin monoclonal antibody (Sigma) was used as a loading control.
Total RNA was isolated from 293AD cells using the RNeasy® total RNA kit (Qiagen, Santa Clarita, Calif.) and resuspended in diethylpyrocarbonate (DEPC)-treated water. Quantification and purity of the RNA was assessed by A260/A280 absorption, and RNA samples with ratios greater than 1.6 were stored at […] for further analysis. Total RNA (10 μg/lane) was fractionated on 2.2 mol/L formaldehyde/1.2% agarose gels and transferred overnight onto Zeta-Probe® GT nylon membranes (Bio-Rad, Toronto, Canada) in 10×SSC. The RNA was cross-linked to the membrane using a UV crosslinker (PDI Bioscience, Toronto, Canada) before hybridization. Specific probes were generated by labeling cDNA fragments with [−32P]dCTP (NEN) using a random primed DNA labeling kit (Boehringer Mannheim, Laval, Canada). The cDNA probe for GADD153 (no. AA627477) was obtained from Genome Systems (St Louis, Mo.). The cDNA probe used for GRP78 is a full length cDNA clone that has been described previously (4). After overnight hybridization at 43° C., the membranes were washed as described by the manufacturer, exposed to x-ray film, and subjected to autoradiography.

a23 cells = test: Tunicamycin-induced cell death, LDH release, transsulfuration negative a23 cells; assay type: cell-based, Chinese hamster; conditions: CBS and CGL negative, p<0.0001
From the text: However, examination of a direct effect of exogenously added cystathionine is not currently possible in a whole animal model because of complications with the compounds solubility and rapid kinetics of its excretion. In order to investigate the direct effects of cystathionine against ER stress-induced cell death, the cytotoxicity of tunicamycin in the human embryonic kidney cell line 293AD and the human hepatoma cell line HepG2 in the presence and absence of both PPG and exogenously added cystathionine was examined. Preliminary experiments confirmed that both of these cell lines express both CBS and CGL (data not shown). In order to investigate the possible protective effects of cystathionine in the absence of transsulfuration, these experiments were repeated with the CBS and CGL negative Chinese hamster fibroblast line a23 (6).
Cells were seeded in triplicate at ˜75% confluence and pre-treated with either PPG) (5 mM), Cystathionine (1 mM) or with just complete media (DMEM, 10% FBS) as a control. […] To further evaluate a role for cystathionine in resisting the induction of cell death by tunicamycin, cell lysis was quantified by assaying lactate dehydrogenase (LDH) release. The enzyme activity was determined spectrophotometrically and the amount of enzyme leak was expressed as a percentage of the LDH activity observed in untreated control cells. […]

HepG2 cells [3] = test: Tunicamycin-induced cell death, LDH release, HepG2 cells; assay type: cell-based, human; conditions: data not shown
Experimental: Cells were seeded in triplicate at ˜75% confluence and pre-treated with either PPG) (5 mM), Cystathionine (1 mM) or with just complete media (DMEM, 10% FBS) as a control. After 24 hr pre-treatment, cells looked normal, with minimal floating cells. Fresh media with 1% FBS was then added to each well, the cells were further treated with Tm (either 5 or 10 ug)/ml. After 18 hr. treatment with Tunicamycin, cells were photographed under phase-contrast with a Zeiss Axiovert 25 microscope for evidence of dead floating cells. Cells from the group treated solely with tunicamycin became strikingly hyper-refringent, detached from the substratum and floated in the media. […] To further evaluate a role for cystathionine in resisting the induction of cell death by tunicamycin, cell lysis was quantified by assaying lactate dehydrogenase (LDH) release. The enzyme activity was determined spectrophotometrically and the amount of enzyme leak was expressed as a percentage of the LDH activity observed in untreated control cells. […]
Cells were seeded in triplicate at ˜75% confluence and pre-treated with either PPG) (5 mM), Cystathionine (1 mM) or with just complete media (DMEM, 10% FBS) as a control. […] To further evaluate a role for cystathionine in resisting the induction of cell death by tunicamycin, cell lysis was quantified by assaying lactate dehydrogenase (LDH) release. […]

[4] = Urinary excretion of cystathionine in mice; assay type: in vivo, mouse
293AD cells = test: Tunicamycin-induced cell death, LDH release and phase-contrast, 293AD cells; assay type: cell-based, human
Experimental: Cells were seeded in triplicate at ˜75% confluence and pre-treated with either PPG) (5 mM), Cystathionine (1 mM) or with just complete media (DMEM, 10% FBS) as a control. After 24 hr pre-treatment, cells looked normal, with minimal floating cells. Fresh media with 1% FBS was then added to each well, the cells were further treated with Tm (either 5 or 10 ug)/ml. After 18 hr. treatment with Tunicamycin, cells were photographed under phase-contrast with a Zeiss Axiovert 25 microscope for evidence of dead floating cells. Cells from the group treated solely with tunicamycin became strikingly hyper-refringent, detached from the substratum and floated in the media. […] To further evaluate a role for cystathionine in resisting the induction of cell death by tunicamycin, cell lysis was quantified by assaying lactate dehydrogenase (LDH) release. The enzyme activity was determined spectrophotometrically and the amount of enzyme leak was expressed as a percentage of the LDH activity observed in untreated control cells.
HepG2, 293AD and a23 cells were seeded in triplicate at ˜75% confluence and were pre-treated with either propargylglycine (PPG) (5 mM) or cystathionine (5 mM) in complete media (DMEM, 10% FBS). After 24 hours, fresh media with 1% FBS was added to each well. Cells were then further treated with tunicamycin (either 5 or 10 ug/ml) for 18 hr treatment. Cells were subsequently photographed under phase-contrast with a Zeiss Axiovert 25 microscope for evidence of dead floating cells. To quantify cell death the media supernatant was collected for LDH release assay using a kit from Roche Applied Science (Cat.No.11 644 793 001) according to the manufacturer's standard protocol where cytotoxicity (%)=((experimental value-low control/(high control-low control))×100.
Cells were seeded in triplicate at ˜75% confluence and pre-treated with either PPG) (5 mM), Cystathionine (1 mM) or with just complete media (DMEM, 10% FBS) as a control. After 24 hr. pre-treatment, cells looked normal, with minimal floating cells. Fresh media with 1% FBS was then added to each well, the cells were further treated with Tm (either 5 or 10 ug)/ml. After 18 hr. treatment with Tunicamycin, cells were photographed under phase-contrast with a Zeiss Axiovert 25 microscope for evidence of dead floating cells. Cells from the group treated solely with tunicamycin became strikingly hyper-refringent, detached from the substratum and floated in the media. […] To further evaluate a role for cystathionine in resisting the induction of cell death by tunicamycin, cell lysis was quantified by assaying lactate dehydrogenase (LDH) release. The enzyme activity was determined spectrophotometrically and the amount of enzyme leak was expressed as a percentage of the LDH activity observed in untreated control cells.

| SMILES | reduction of total cell death (A293AD kidney cells; thapsagargin 1 uM) | protection against cell death induced by thapsagargin (HepG2 cells [1]) | protection against cell death induced by tunicamycin (HepG2 cells [1]) | solubility in water [2] | expression of Grp78, Grp94 and GADD15 in control cells (Grp78, Grp94, GADD153; PPG 5 mM or cystathionine 5 mM, no tunicamycin) | scale of induction of Grp78, Grp94 and GADD153 in the presence of tunicamycin (Grp78, Grp94, GADD153; tunicamycin 5 and 10 μg/ml) | cell death in cystathionine control (A293AD kidney cells; cystathionine 1 mM alone) | protection against thapsagargin induced cell death (LDH release) (A293AD kidney cells; cystathionine 1 mM, thapsagargin 1 uM) | reduction in tunicamycin induced cell death (LDH release) (a23 cells) [fold] | protection against tunicamycin-induced cell death compared with 293AD cells (HepG2 cells [3]) | excretion in urine [4] | reduction in cell death (LDH release) (293AD cells; 293AD cells, tunicamycin 10 μg/ml 18 hr, 24 hr pre-treatment PPG 5 mM or cystathionine 1 mM, p<0.0001) [fold] | floating dead cells (phase-contrast) (293AD cells; tunicamycin 18 hr after PPG or cystathionine pre-treatment) |
| --- | --- | --- | --- | --- | --- | --- | --- | --- | --- | --- | --- | --- | --- |
| COC(=O)C[C@H](NC(=O)[C@H](C)NC(=O)[C@@H](NC(=O)OCc1ccccc1)C(C)C)C(=O)CF [Z-VAD-FMK] (Cbz-Val-Ala-Asp(OMe)-CH2F) | approximately 20% | only modest protection | only modest protection |  |  |  |  |  |  |  |  |  |  |
| NC(CSCC[C@@H](N)C(=O)O)C(=O)O (stereo partly drawn) [cystathionine, R—S-(2-Amino-2-carboxyethyl)-L-homocysteine] |  | much greater protective effects | much greater protective effects | relatively low solubility in water | Neither PPG nor exogenously added cystathionine induced expression | Nor did either of these treatments significantly alter the scale of induction | No cell death was observed | highly significant protective effects | 16 | Essentially identical results | rapidly excreted in the urine | 27 | No floating dead cells were observed |

Source: patent publication US20200352889A1, “CYSTATHIONINE COMPOSITIONS AND METHODS OF TREATMENT FOR HEALTH CONDITIONS” (THE REGENTS OF THE UNIVERSITY OF COLORADO, A BODY CORPORATE, priority 2011, published 2020)
